# Data reported in patent US20110190272A1, “CHEMICAL COMPOUNDS” (ASTRAZENECA AB, priority 2008, published 2011).
# pIC50: −log10 of the molar value.
# Molecular target: T1, CSF-1R (Homo sapiens, UniProt P07333)
# T1 construct: The His-tagged kinase domain of CSF-1R (i.e., amino acids 568-912, GeneBank ID NM_005211); His; made in house; host or cells: baculovirus infected SF+Express insect cells
# T1 sequence (P07333 568-912): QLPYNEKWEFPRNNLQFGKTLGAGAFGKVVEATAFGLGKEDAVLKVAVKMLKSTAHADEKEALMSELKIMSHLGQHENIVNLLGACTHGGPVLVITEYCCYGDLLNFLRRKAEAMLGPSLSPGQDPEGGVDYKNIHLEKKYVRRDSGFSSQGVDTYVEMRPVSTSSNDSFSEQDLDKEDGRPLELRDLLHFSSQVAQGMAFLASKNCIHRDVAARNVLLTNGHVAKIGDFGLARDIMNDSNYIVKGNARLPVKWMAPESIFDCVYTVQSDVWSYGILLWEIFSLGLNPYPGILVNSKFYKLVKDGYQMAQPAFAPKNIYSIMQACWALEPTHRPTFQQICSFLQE
# Assay: Assay 1: CSF-1R In Vitro AlphaScreen Assay
# Type: biochemical
# Details: purified His-tagged kinase domain of CSF-1R, 90 μM ATP
# Procedure: The phosphorylation of the CSF-1R substrate in the presence and absence of the compound of interest was determined. […] Plates were incubated at 25° C. for 18 hours in the dark. Phosphorylated substrate was detected by an EnVision plate reader (Perkin Elmer) 680 nm excitation, 520-620 nm emission. Data was graphed and IC50s calculated using Excel Fit (Microsoft).
row,pIC50,Structure (SMILES)
1,> 8.52,"COc1cc2nnc(C(N)=O)c(Nc3cccc(Cl)c3F)c2cc1OC [Example 3, 4-[(3-Chloro-2-fluorophenyl)amino]-6,7-dimethoxycinnoline-3-carboxamide]"

# Molecular target: T1, CSF-1R
# Assay: Assay 2: CSF1R In-Vitro AlphaScreen Assay
# Type: biochemical
# Details: purified His-tagged kinase domain of CSF-1R, 12 mM ATP in mix
# Procedure: Assay 2: CSF1R In-Vitro AlphaScreen Assay
# Activity of purified CSF-1R was determined in-vitro using an Amplified Luminescent Proximity Homogeneous Assay (ALPHA) (Perkin Elmer, Mass.), which measures phosphorylation of CSF-1R substrate, biotinylated […] peptide (pEY-HTRF CisBio 61GT0BLD), as described below. The His-tagged kinase domain of CSF-1R (i.e., amino acids 568-912, GeneBank ID NM_005211) was purified from baculovirus infected SF+Express insect cells (1.4×10^6 cells/ml), French pressed and chromatographed through subsequent QIAgen Ni-NTA, Superflow Mono Q HR 10/10, and Superdex 200 SEC columns.
# The phosphorylation of the CSF-1R substrate in the presence and absence of the compound of interest was determined. Briefly, 5 ul of Enzyme/Substrate/adenosine triphosphate (ATP) mix consisting of 0.46 nM of purified CSF-1R, 12 nM pEY substrate, and 12 mM ATP in 1.2× buffer was preincubated with 2 ul of compound for 20 minutes at 25° C. Reactions were initiated with 5 ul of Metal mix consisting of 24 mM MgCl2 in 1.2× buffer and incubated at 25° C. for 90 minutes and reactions were stopped by addition of 5 ul of Detection mix consisting of 20 mM HEPES, 102 mM ethylenediamine tetraacetic acid, 1.65 mg/ml BSA, 136 mM NaCl, 40 ug/ml Streptavidin donor beads (Perkin Elmer, Mass., Catalog #6760002), and 40 ug/ml phosphotyrosine-specific antibody coated acceptor beads (Perkin Elmer, Mass., Catalog #6760620). Plates were incubated at 25° C. for 18 hours in the dark. Phosphorylated substrate was detected by an EnVision plate reader (Perkin Elmer) 680 nm excitation, 520-620 nm emission. Data was graphed and IC50s calculated using Excel Fit (Microsoft).
row,Structure (SMILES),pIC50
1,"COc1cc2nnc(C(N)=O)c(Nc3ccc(C)cc3F)c2cc1N1C[C@@H](C)N(CCO)[C@@H](C)C1 [Example 63, 4-[(2-Fluoro-4-methylphenyl)amino]-6-[(3R,5S)-4-(2-hydroxyethyl)-3,5-dimethylpiperazin-1-yl]-7-methoxycinnoline-3-carboxamide]",7.92
2,"Cc1ccc(Nc2c(C(N)=O)nnc3cc(N4CCN(S(C)(=O)=O)CC4)ccc23)c(F)c1 [Example 56, 4-[(2-Fluoro-4-methylphenyl)amino]-7-[4-(methylsulfonyl)piperazin-1-yl]cinnoline-3-carboxamide]",7.96
3,"COc1cc2nnc(C(N)=O)c(Nc3ccc(C)cc3F)c2cc1N1CC[C@H](N(C)C)C1 [Example 41, 6-[(3S)-3-(Dimethylamino)pyrrolidin-1-yl]-4-[(2-fluoro-4-methylphenyl)amino]-7-methoxycinnoline-3-carboxamide]",> 8.52
4,"COc1cc2nnc(C(N)=O)c(Nc3ccc(C)cc3F)c2cc1N1CCN(C(CO)CO)CC1 [Example 66, 4-[(2-Fluoro-4-methylphenyl)amino]-6-{4-[2-hydroxy-1-(hydroxymethyl)ethyl]piperazin-1-yl}-7-methoxycinnoline-3-carboxamide]",8.40
5,"Cc1ccc(Nc2c(C(N)=O)nnc3cc(N4CCN(CCO)CC4)ccc23)c(F)c1 [Example 57, 4-[(2-Fluoro-4-methylphenyl)amino]-7-[4-(2-hydroxyethyl)piperazin-1-yl]cinnoline-3-carboxamide]",8.10
6,"Cc1ccc(Nc2c(C(N)=O)nnc3cc(N4CCN(C)CC4)ccc23)c(F)c1 [Example 55, 4-[(2-Fluoro-4-methylphenyl)amino]-7-(4-methylpiperazin-1-yl)cinnoline-3-carboxamide]",8.52
7,"COc1cc2nnc(C(N)=O)c(Nc3ccc(C)cc3F)c2cc1N1CCN(CCS(C)(=O)=O)CC1 [Example 65, 4-[(2-Fluoro-4-methylphenyl)amino]-7-methoxy-6-{4-[2-(methylsulfonyl)ethyl]piperazin-1-yl}cinnoline-3-carboxamide]",8.22
8,"COCCOC1CCN(c2cc3c(Nc4ccc(C)cc4F)c(C(N)=O)nnc3cc2OC)CC1 [Example 60, 4-[(2-Fluoro-4-methylphenyl)amino]-7-methoxy-6-[4-(2-methoxyethoxy)piperidin-1-yl]cinnoline-3-carboxamide]",7.41
9,"COc1cc2nnc(C(N)=O)c(Nc3ccc(C)cc3F)c2cc1N1CCN(C[C@H](O)CO)CC1 [Example 67, 6-{4-[(25)-2,3-Dihydroxypropyl]piperazin-1-yl}-4-[(2-fluoro-4-methylphenyl)amino]-7-methoxycinnoline-3-carboxamide]",8.30

# Second part, the molecule after the results:
row,pIC50,Structure (SMILES)
1,8.22,"COc1cc2nnc(C(N)=O)c(Nc3ccc(C)cc3F)c2cc1N1CCN(C[C@@H](O)CO)CC1 [Example 68, 6-{4-[(2R)-2,3-Dihydroxypropyl]piperazin-1-yl}-4-[(2-fluoro-4-methylphenyl)amino]-7-methoxycinnoline-3-carboxamide]"
2,7.28,"COc1cc2nnc(C(N)=O)c(Nc3ccc(C)cc3F)c2cc1CN1CCOCC1 [Example 73, 4-[(2-Fluoro-4-methylphenyl)amino]-7-methoxy-6-(morpholin-4-ylmethyl)cinnoline-3-carboxamide]"
3,7.64,"COc1cc2nnc(C(N)=O)c(Nc3ccc(C)cc3F)c2cc1N1CCN(C(=O)C(C)(C)O)CC1 [Example 69, 4-[(2-Fluoro-4-methylphenyl)amino]-6-[4-(2-hydroxy-2-methylpropanoyl)piperazin-1-yl]-7-methoxycinnoline-3-carboxamide]"
4,7.41,"COc1cc2nnc(C(N)=O)c(Nc3ccc(C)cc3F)c2cc1C1CCN(CC(F)F)CC1 [Example 71, 6-[1-(2,2-Difluoroethyl)piperidin-4-yl]-4-[(2-fluoro-4-methylphenyl)amino]-7-methoxycinnoline-3-carboxamide]"
5,7.62,"COc1cc2nnc(C(N)=O)c(Nc3ccc(C)cc3F)c2cc1C1CCN(C(=O)[C@H](C)O)CC1 [Example 70, 4-[(2-Fluoro-4-methylphenyl)amino]-6-{1-[(2S)-2-hydroxypropanoyl]piperidin-4-yl}-7-methoxycinnoline-3-carboxamide]"
6,7.28,"COc1cc2nnc(C(N)=O)c(Nc3ccc(C)cc3F)c2cc1N1C[C@@H](C)N(C(C)=O)[C@@H](C)C1 [Example 72, 6-[(3R,55)-4-Acetyl-3,5-dimethylpiperazin-1-yl]-4-[(2-fluoro-4-methylphenyl)amino]-7-methoxycinnoline-3-carboxamide]"
